Assay results taken from US20090170762A1, “Treatment of Diabetes Related Obesity” (UUTech Limited, priority 2005, published 2009).
Ends that are not written are not given here.

Columns and labels:
Swiss TO mice = assay: Daily (Pro3)GIP for 60 days in Swiss TO mice previously fed high fat diet for 160 days; format: in vivo, mouse; details: high fat diet 160 days before, 25 nmoles/kg/day i.p. 60 days
Protocol: Parameters were measured at 3-4 daily intervals during a 60 day treatment period, which was preceded by a 160 days of feeding high fat diet. Mice were initially recruited into the study at 6-8 weeks of age. Control animals received standard rodent maintenance diet, 12.99 kj/g, (Harlan, UK) ad libitum. The animals were maintained on the respective diet for the duration of the study. High fat diet comprised 45% fat, 20% protein and 35% carbohydrate (26.15 kj/g) and was available ad libitum. (Special Diet Services, Essex, UK).
The results are shown in FIGS. 15A-B, which are a set of line graphs. Normal mice were fed the high fat diet indicated above ad libitum from 6-8 weeks of age. Treated groups of mice received intraperitoneal injection of ProGIP (25 nmoles/kg body weight) each day for a further 60 days while receiving the same high fat diet.

normal mice = details: once daily 11 days (Irwin 2004); cited from earlier work

In the case of “YAPGTFISDYSIAMDKIHQQDFVNWLLAQKGKKNDWKHNITQ [(Pro^3)GIP]”, the body weight (Swiss TO mice) is listed as “promotes body weight loss”, the energy intake (Swiss TO mice) is listed as “not associated with significant decrease in energy intake” and the “glucose tolerance and insulin sensitivity” value (normal mice) is listed as “reversible impairment of glucose tolerance associated with decreased insulin sensitivity”.
